Assays:
healthy subjects [1] = assay: Acute subjective effects on the Visual Analog Scale (VAS); type: in vivo, human
Protocol: Study design: The present study compares the acute subjective, physiological and endocrine effects of S-MDMA (125 mg), R-MDMA (125 and 250 mg), MDMA (125 mg) using a placebo-controlled double-blind 5-period cross-over design in 24 healthy subjects. Conditions are 1.) R-MDMA 125 mg, 2). R-MDMA 250 mg, 3) S-MDMA 125 mg, 4) MDMA 125 mg, 5) placebo. Treatment order is counterbalanced. Washout periods between substance administrations are at least 10 days. Study days include a 10-hour study session with a subsequent single measurement (short visit) the next morning (24 hours after drug administration).
Study procedures: The study takes place at the University Hospital Basel. Each of the test sessions last from 8:00 until 18:00 with a short visit the next morning (24 hours after application). An indwelling intravenous catheter is inserted into a subcutaneous vein of the forearm and baseline psychometric measures are obtained. Administration of the substance is at 9:00. Outcome measures (see below) are repeatedly assessed during the study session. Subjects are under continuous medical supervision until any alterations of consciousness have completely subsided and they leave the research facility.
Psychometric assessments: Visual Analog Scale (VAS): VASs is repeatedly used to assess subjective alterations in consciousness over time. Single scales are presented as 100 mm horizontal lines marked with “not at all” on the left and “extremely” on the right. The following VAS items are used: “any drug effect”, “good drug effect”, “bad drug effect”, “stimulated”, “liking”, “happy”, “content”, “talkative”, “open”, “trust”, “feeling close to others”, “anxiety”, “alteration of vision”, “alterations of hearing”, “sounds seem to influence what I see”, “alteration of sense of time”, “the boundaries between myself and my surroundings seem to blur”, “want to be with other people”, and “want to be alone”. Scales are administered before and repeatedly after substance administration and take approximately 2 minutes to fill out. The maximal ratings (Emax, 0-100) and areas under the effect-time curve (AUEC) are defined for each VAS and Emax and AUEC values compared between treatments using analysis of variance. 5-Dimensions of Altered States of Consciousness (5D-ASC): The 5 Dimensions of Altered States of Consciousness (5D-ASC) Scale is a questionnaire containing visual analog scales for 94 items (Studerus et al., 2010). The instrument contains five scales assessing mood, anxiety, derealization, depersonalization, changes in perception, auditory alterations, and reduced vigilance. The scale is well-validated (Studerus et al., 2010) and used internationally to evaluate effects of many other psychoactive substances. The overall psychedelic experience is reflected by the total […] score. Each item of the scale is scored on a 0-100 mm VAS. The attribution of the individual items to the subscales of the 5D-ASC is analyzed according to (Studerus et al., 2010). The 5D-ASC scale is administered once at the end of the session and subjects are instructed to retrospectively rate peak alterations that have been experienced during the study session. Adiective Mood Rating Scale (AMRS): The Adjective Mood Rating Scale (AMRS or EWL60S) is a 60-item Likert scale that allows repeated assessment of mood in 6 dimensions: Activation, inactivation, well-being, anxiety/depressed mood, extra- and introversion, and emotional excitability. The German EWL60S version is used. The AMRS consists of subscales measuring “activation,” “positive mood,” “extraversion,” “introversion,” “inactivation,” and “emotional excitability. The scale has previously been used to evaluate effects of many other psychoactive substances. Emax and AUEC scores will be defined for each subscale and compared between treatments using analysis of variance. The AMRS is administered repeatedly throughout the study session and once 3 days after each session. […]

healthy subjects [2] = assay: Connectedness subscale of the PES questionnaire; type: in vivo, human
model of PTSD = details: cited from earlier work
animals = details: various animal studies; cited from earlier work

SMILES	VAS Emax for “feeling high” (healthy subjects [1]; 250 mg R-MDMA compared with 125 mg (±)-MDMA, 24 subjects)	VAS “drug high”, “happy”, “content”, “talkative”, “open”, “trust” and “I feel close to others” (healthy subjects [1]; 250 mg R-MDMA versus (±)-MDMA and S-MDMA)	ratings of connectedness, difference between conditions (healthy subjects [2]; 250 mg)	conditioned fear when retention of extinction was assessed (model of PTSD)	social interaction (animals)	how much stimulated participants felt (healthy subjects [1]; 125 mg S-MDMA compared to (±)-MDMA)	how much stimulated participants felt (healthy subjects [1]; 125 mg S-MDMA compared to both doses of R-MDMA)	VAS Emax for “bad drug effects,” “alteration of vision” and “audio-visual synesthesia” (healthy subjects [1]; 125 mg S-MDMA compared with 125 mg (±)-MDMA, 24 subjects)	VAS items “alteration of vision” and “audio-visual synesthesia” (healthy subjects [1]; 125 mg S-MDMA compared with both R-MDMA doses and (±)-MDMA)	all VAS items except “fear” (healthy subjects [1]; 125 mg S-MDMA versus 250 mg R-MDMA)	VAS “any drug effects”, “good drug effects”, “I like the effect”, “stimulation”, “alteration of time” and “ego dissolution” (healthy subjects [1]; 125 mg S-MDMA versus 125 and 250 mg R-MDMA)	VAS “bad drug effects,” “alteration of vision” and “audio-visual synesthesia” (healthy subjects [1]; 125 mg S-MDMA versus (±)-MDMA and 250 mg R-MDMA)	VAS “talkative,” “open,” “trust,” and “I feel close to others” (healthy subjects [1]; 125 mg, compared with both R-MDMA doses and placebo)	feelings of “drug high” (healthy subjects [1]; S-MDMA compared with R-MDMA, abuse potential)	ratings of connectedness, difference between conditions (healthy subjects [2]; 125 mg)	conditioned fear during extinction training (model of PTSD)
CN[C@H](C)Cc1ccc2c(c1)OCO2 [R-MDMA, R(−)-MDMA]	lower Emax values	lower effects	no difference	reduced conditioned fear	Increased social interaction	–	–	–	–	–	–	–	–	–	–	–
CN[C@@H](C)Cc1ccc2c(c1)OCO2 [S-MDMA, S(+)-MDMA]	–	–	–	–	only slightly with S-MDMA or not at all	no significant difference	higher values	higher Emax values	higher increases	significant stronger effects	more than 125 and 250 mg R-MDMA	stronger	higher values	greater	no difference	reduced conditioned fear during extinction training but not thereafter

Reference: patent US20240307345A1, “R-MDMA and S-MDMA TO ASSIST PSYCHOTHERAPY” (Universitatsspital Basel, priority 2022, published 2024)
